Data as given in patent publication US20090123420A1, “Regulation of T Cell-Mediated Immunity by D Isomers of Inhibitors of Indoleamine-2,3-Dioxygenase” (Medical College of Georgia Research Institute, Inc, priority 2003, published 2009).
Entries after “also recorded” stand apart in the source; their conditions may differ. One block for each molecule: values may come before it. No end group written: not given here.

What was measured:
B16F10 melanomas = experiment: Established B16F10 melanoma model, 1MT with radiation or cyclophosphamide; assay type: in vivo, mouse; settings: for effect on tumor growth, 1MT alone: established tumor, treatment from day 7, SQ pellets
Method: FIGS. 11A-11D. Administration of 1-MT enhances immune-mediated host anti-tumor effect when administered with radiation or cyclophosphamide. Mice were injected subcutaneously (SQ) with 4×10^4 B16F10 cells. […] Control mice received vehicle pellets without drug.
Mouse tumor models. C57BL/6 mice (Jackson, Bar Harbor, Me.) were implanted with tumors in the anteriomedial thigh, using either 4×10^4 B16F10 (ATCC, Bethesda, Md.) or 1×10^6 B78H1•GM-CSF. B78H1•GM-CSF cells recruit large numbers of APCs (Dranoff et al., Proc. Natl. Acad. Sci. USA, 1993; 90:3539) and were originally designed as a vaccine strategy. GMCSF-transfected tumors are immunogenic if lethally irradiated prior to injection (Borrello et al., Hum. Gene Ther., 1999; 10:1983), but live tumors grow progressively and create systemic tolerance to tumor antigens (Bronte et al., J. Immunol., 1999; 162:5728). Thus, B78H1•GM-CSF represented an excellent model for our studies, since it recruited many DCs but nevertheless […]. Tumors were 10-12 days after implantation, well prior to the stage of large, metastatic tumors (day 21) in which the hosts began to show alteration in spleen and non-tumor-draining LNs.
Not unexpected, given that the tumor had already been allowed to create tolerance in the host.

[1] = Comparative plasma pharmacokinetics of the stereo-isomers of 1-MT; assay type: in vivo, mouse
Method: Studies were conducted in conventional mice after IV, PO and SC doses of 50 mg/kg, and IP doses of 25 mg/kg, 50 mg/kg, and 100 mg/kg.

[2] = Pilot tissue biodistribution of D and L isomers after DL racemic mixture; assay type: in vivo, mouse; settings: DL racemic mixture 10 mg/day SQ pellets, 72 hour infusion
Excerpt: The results noted with spleen are particularly relevant because it is a lymphoid organ, and thus likely to be similar to tumor-draining lymph nodes.

IDO [3] = experiment: Recall MLR of primed recipient LN cells with 1MT added to the MLR; assay type: cell-based, mouse; settings: responders from recipients of TDLN DCs
[4] = tested on: Lewis Lung carcinoma (LLC); settings: mouse, in vivo; cited from earlier work
P815 with IDO = settings: concomitant administration; cited from earlier work
IDO [5] = biological target: IDO (Mus musculus, UniProt P28776); experiment: MLR with sorted tumor-draining lymph node (TDLN) cells as stimulators and BM3 responder T cells; settings: 10x
Chain of IDO (Mus musculus, UniProt P28776) (P28776 whole entry): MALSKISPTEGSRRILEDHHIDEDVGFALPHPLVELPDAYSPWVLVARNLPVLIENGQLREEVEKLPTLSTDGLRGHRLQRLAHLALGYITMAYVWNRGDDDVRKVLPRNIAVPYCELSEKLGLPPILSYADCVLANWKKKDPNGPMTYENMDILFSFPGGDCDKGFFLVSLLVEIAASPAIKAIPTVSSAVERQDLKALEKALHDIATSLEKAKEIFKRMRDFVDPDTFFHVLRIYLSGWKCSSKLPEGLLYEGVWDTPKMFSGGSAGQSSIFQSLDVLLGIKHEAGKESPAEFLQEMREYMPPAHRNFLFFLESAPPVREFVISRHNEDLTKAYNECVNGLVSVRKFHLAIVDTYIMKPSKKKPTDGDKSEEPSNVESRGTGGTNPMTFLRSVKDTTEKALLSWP
Method: T cell activation in MLR. BM3 responder T cells were prepared from spleen by nylon-wool enrichment. Stimulators (sorted DCs or unfractionated TDLN) were mixed with 1×10^5 BM3 responder cells in 200 ul IMDM at the ratios shown in each figure. After 3 days, proliferation was measured by 4-hour thymidine incorporation assay.
MLRs were thus “two-way” reactions. However, the small number of sorted DCs used as stimulators contributed negligible proliferation compared to the large population of TCR-transgenic responder cells. Since the relevant readout was dominant suppression, the two-way MLR design presented no problem in interpretation.
Pooled draining LN cells (4 nodes) were stained and fractionated by 4-color MoFlo cell sorting for the two populations shown in the schematic of FIG. 5B. All other cells were collected in a third fraction. Each fraction was then used as stimulators in MLRs, using 50,000 BM3 T cells as responders. The number of stimulators used in each MLR was adjusted to be the same as would have been present in 50,000 cells of the original LN preparation, based on the measured percentage of each sorted fraction. Thus, 500 cells of the sorted B220^+ CD11c^+ fraction were added per well, and 1500 cells of the CD25^+ CD4^+ fraction, while 48,000 cells of the “all other” fraction were used.

IDO [6] = biological target: IDO (Homo sapiens, UniProt P14902); experiment: Allogeneic mixed-leukocyte reaction (MLR) with IDO-expressing human monocyte-derived DCs, T cell proliferation by thymidine incorporation; settings: 250 uM in culture medium
Chain of IDO (Homo sapiens, UniProt P14902) (P14902 whole entry): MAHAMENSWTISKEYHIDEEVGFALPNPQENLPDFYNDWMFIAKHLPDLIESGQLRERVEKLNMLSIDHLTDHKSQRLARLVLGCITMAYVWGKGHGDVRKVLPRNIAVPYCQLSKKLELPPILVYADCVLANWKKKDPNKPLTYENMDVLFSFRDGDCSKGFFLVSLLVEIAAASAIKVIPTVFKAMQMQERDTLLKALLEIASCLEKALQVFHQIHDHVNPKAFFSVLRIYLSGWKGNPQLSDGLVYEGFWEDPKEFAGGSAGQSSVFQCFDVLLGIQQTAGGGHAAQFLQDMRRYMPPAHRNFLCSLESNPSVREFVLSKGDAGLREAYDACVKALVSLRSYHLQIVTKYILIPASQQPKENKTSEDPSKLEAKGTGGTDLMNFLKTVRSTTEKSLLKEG
Method: Replicate MLRs received each compound at the concentrations shown. Bars represent T cell proliferation at the end of the 5-day activation period.
After 5 days, proliferation was measured by 4 hour thymidine incorporation assay. “V”-bottom culture wells (Nunc) were used in MLR assays to maximize cell-cell contact.
DCs were used as stimulators in allogeneic mixed-leukocyte reactions (MLRs), with allogeneic lymphocytes as responder cells.

[7] = biological target: rabbit polyclonal anti-human IDO antibody (raised against the KLH-conjugated peptide of SEQ ID NO:1, affinity purified); experiment: flow cytometry of IFNγ-activated monocyte-derived macrophages; anti-IDO antibody pre-adsorbed with the immunizing peptide, which competes with IDO

Molecule: Cn1cc(CC(N)C(=O)O)c2ccccc21 (racemic) [DL racemic form of 1MT, reference compound]
- tumor growth, 1MT with cyclophosphamide (B16F10 melanomas; 20 mg per mouse per day DL racemic, cyclophosphamide 150 mg/kg x 1 dose): significantly reduce tumor growth
- tumor growth, 1MT with radiation (B16F10 melanomas; 20 mg per mouse per day DL racemic, total-body radiation 500 cGy single dose): significantly reduce tumor growth
- effect on tumor growth, 1MT alone (B16F10 melanomas): no effect

Molecule: Cn1cc(C[C@@H](N)C(=O)O)c2ccccc21 [1-methyl-D-tryptophan]
- anti-tumor effect of combination with radiation (B16F10 melanomas; replicate radiation studies): enhanced effect over radiation alone
- apparent volume of distribution ([1]; D versus L isomer): relatively greater
- bioavailability ([1]; mouse, plasma, po, 50 mg/kg): 64%
- accumulation in liver, D versus L isomer [2]: at least equal, and possibly preferential, accumulation
- distribution into muscle and spleen, D versus L isomer [2]: equivalent distribution
- levels in plasma and in brain, D versus L isomer [2]: lower levels

Molecule: Cn1cc(C[C@H](N)C(=O)O)c2ccccc21 [1MT, 1-methyl-tryptophan]
- suppression in recall MLRs (IDO [3]): no effect; also recorded: not restored
- effect of 1MT over cyclophosphamide alone in immunodeficient hosts (B16F10 melanomas; RAG1-knockout hosts): no enhancing effect
- effect on tumor growth, 1MT alone (B16F10 melanomas): no effect
- tumor outgrowth [4]: significantly delayed tumor outgrowth
- IDO-mediated prevention of tumor rejection by pre-immunized hosts (P815 with IDO): substantially reversed

More lines, main results first:

- oral bioavailability ([1]; PO): 105%
Molecule: Cn1cc(C[C@H](N)C(=O)O)c2ccccc21 [L 1-MT, reference compound]

- effect of excess L-tryptophan with IDO-knockout pDCs (IDO [5]; TDLN cells from IDO-knockout mice): no effect
- DC-mediated inhibition of T cell proliferation with supra-physiologic tryptophan (IDO [6]): completely reversed
Molecule: N[C@@H](Cc1c[nH]c2ccccc12)C(=O)O [L-tryptophan]
- suppression by pDCs with excess L-tryptophan (IDO [5]; 250 uM, IDO-sufficient host): abrogated; also recorded: abrogates suppression

- reduction of flow cytometry signal [7]: > 95%
B1: immunizing peptide … (SEQ ID NO:1), based on human IDO (peptide)
peptide: LIESGQLRERVEKLNMLC
modifications: also: conjugated to keyhole limpet carrier protein for immunisation
